According to ChEMBL document CHEMBL3045358, “Synthesis of kojic acid-derived copper-chelating apoptosis inducing agents” (2013):
Activity calls are given as the source filed them. The calls are words filed in the database; no cut-off is given here.

Tests used:
HeLa [1] = experiment: Antiproliferative activity against Homo sapiens (human) HeLa cells assessed as growth inhibition at 25 uM after 48 hr by MTT assay in presence of 50 uM CuCl2; type: functional
HeLa [2] = experiment: Induction of cell cycle arrest in Homo sapiens (human) HeLa cells assessed as accumulation of cells at sub-G1 phase at 25 uM after 24 hr by propidium iodide staining based flow cytometry in presence of 50 uM CuCl2 (reference value: 3.22%); type: functional
HeLa [3] = experiment: Induction of cell cycle arrest in Homo sapiens (human) HeLa cells assessed as accumulation of cells at sub-G1 phase at 25 uM after 24 hr by propidium iodide staining based flow cytometry (reference value: 3.41%); type: functional
HeLa [4] = experiment: Antiproliferative activity against Homo sapiens (human) HeLa cells assessed as growth inhibition at 25 uM after 48 hr by MTT assay; type: functional, cell-based
HeLa [5] = experiment: Antiproliferative activity against Homo sapiens (human) HeLa cells assessed as growth inhibition after 48 hr by MTT assay; type: functional
HeLa [6] = experiment: Antiproliferative activity against Homo sapiens (human) HeLa cells assessed as growth inhibition after 48 hr by MTT assay in presence of 50 uM CuCl2; type: functional
HeLa [7] = experiment: Antiproliferative activity against Homo sapiens (human) HeLa cells assessed as growth inhibition at 75 uM after 48 hr by MTT assay; type: functional; settings: read-out: GI
HeLa [8] = experiment: Increase in ERK phosphorylation in Homo sapiens (human) HeLa cells at 15 uM after 24 hr by Western blot analysis in presence of 50 uM CuCl2; type: cell-based
HeLa [9] = experiment: Induction of cell cycle arrest in Homo sapiens (human) HeLa cells assessed as accumulation of cells at sub-G1 phase at 5 uM after 24 hr by propidium iodide staining based flow cytometry in presence of 50 uM CuCl2 (reference value: 3.22%); type: functional
HeLa [10] = experiment: Induction of cell cycle arrest in Homo sapiens (human) HeLa cells assessed as accumulation of cells at sub-G1 phase at 15 uM after 24 hr by propidium iodide staining based flow cytometry in presence of 50 uM CuCl2 (reference value: 3.22%); type: functional
HeLa [11] = experiment: Induction of cell cycle arrest in Homo sapiens (human) HeLa cells assessed as accumulation of cells at sub-G1 phase at 15 uM after 24 hr by propidium iodide staining based flow cytometry (reference value: 3.41%); type: functional
HeLa [12] = experiment: Induction of apoptosis in Homo sapiens (human) HeLa cells assessed as PARP cleavage at 15 uM after 24 hr by Western blot analysis in presence of 50 uM CuCl2; type: functional, cell-based
HeLa [13] = experiment: Induction of apoptosis in Homo sapiens (human) HeLa cells assessed as decrease in 32 kDa procaspase-3 level at 15 uM after 24 hr by Western blot analysis in presence of 50 uM CuCl2; type: functional, cell-based
HeLa [14] = experiment: Induction of cell cycle arrest in Homo sapiens (human) HeLa cells assessed as accumulation of cells at sub-G1 phase at 5 uM after 24 hr by propidium iodide staining based flow cytometry (reference value: 3.41%); type: functional
[15] = target: MAP kinase p38 (Homo sapiens) (UniProt O15264+Q15759+Q16539+P53778); experiment: Increase in p38 MAPK phosphorylation in Homo sapiens (human) HeLa cells at 15 uM after 24 hr by Western blot analysis in presence of 50 uM CuCl2; type: cell-based

With `COc1ccc(COc2coc(/C=C/c3ccccc3)cc2=O)cc1` the “growth inhibition (GI)” value (HeLa [1]) was “inactive”.
With `O=c1cc(CO)occ1O` [KOJIC ACID] the Activity (HeLa [2]) was 3.57%, the “growth inhibition (GI)” value (HeLa [1]) was “inactive” and the Activity (HeLa [3]) was 2.16%. The “growth inhibition (GI)” value (HeLa [4]) was “inactive”.
With `O=c1cc(/C=C/c2ccc(O)c(O)c2)occ1O` the “growth inhibition (GI)” value (HeLa [1]) was “inactive” and the “growth inhibition (GI)” value (HeLa [4]) was “inactive”.
For `O=c1cc(/C=C/c2ccccc2)occ1O`, the “growth inhibition (GI)” value (HeLa [1]) was 90%, the GI50 (HeLa [5]) was 64.5 µM and the “growth inhibition (GI)” value (HeLa [4]) was “inactive”. The GI50 (HeLa [6]) was 11.9 µM.
`O=c1cc(CN2CCN(S(=O)(=O)c3ccccc3)CC2)occ1O` was tested, and the “growth inhibition (GI)” value (HeLa [1]) was 35%.
With `O=c1cc(COc2cccc(O)c2)occ1O` the “growth inhibition (GI)” value (HeLa [1]) was “inactive” and the “growth inhibition (GI)” value (HeLa [4]) was “inactive”.
`O=c1cc(COc2cccc3cccnc23)occ1O` was tested, and the inhibition of growth at 75 µM (HeLa [7]) was 15.2%, the Activity (HeLa [8]) was “Active” and the Activity (HeLa [9]) was 11.58%. The “growth inhibition (GI)” value (HeLa [1]) was 95%, the Activity (HeLa [10]) was 48.56% and the Activity (HeLa [11]) was 5.85%. The “growth inhibition (GI)” value (HeLa [4]) was “inactive”, the Activity (HeLa [12]) was “Active” and the Activity (HeLa [13]) was “Active”. For the same compound, the Activity (HeLa [14]) was 5.09%, the GI50 (HeLa [6]) was 7.1 µM and the Activity [15] was “Active”.
